# Reference: PMC4145793, “Inhibitory and Acceleratory Effects of Inonotus obliquus on Tyrosinase Activity and Melanin Formation in B16 Melanoma Cells” (Evidence-based Complementary and Alternative Medicine : eCAM, 2014)
# “And” between values parts separate entries of the source, which are not always exact repeats. Equal entries are not always repeated. Where two headings read alike, the source gives them in different places.
# Columns and labels:
# B16 melanoma cells [1] = assay: cellular melanin content in B16 melanoma cells; format: cell-based; conditions: 100-400 μM, 72 h
# Method: For melanin content, the cells were treated with test compounds or kojic acid in the presence or absence of α-MSH as described above. The cells were washed with PBS and lyzed with 800 μL of 1 N NaOH (Sigma, USA) containing 10% DMSO for 1 h at 80°C. The absorbance at 400 nm was measured. The melanin content was determined from a standard curve prepared from an authentic standard of synthetic melanin (Sigma, USA).
# B16 melanoma cells [2] = assay: cell apoptosis rate, AnnexinV-FITC flow cytometry; format: cell-based; conditions: 72 h
# Method: (§1) To determine the safety of the various compounds, after treatment with the test compounds cell viability was determined by using MTT colorimetric assay and cell apoptosis rate by using AnnexinV-FITC apoptosis analysis kit (Tianjin Sungene Biotech Co., Ltd). 1 × 10^6 cells were added to individual wells of a 24-well plate. […] Cell viability was determined in a colorimetric assay using mitochondrial dehydrogenase activity in active mitochondria to form purple formazan. Apoptosis rate in a fluorochrome assay using flow cytometry (BD, USA).
# [3] = biological target: T1, tyrosinase in B16 melanoma cells (Mus musculus, UniProt P11344); assay: kinetic analysis of tyrosinase activity inhibition, B16 lysate protein, L-DOPA substrate, Lineweaver-Burk plot; format: biochemical; conditions: for K IS (inhibition constant) / mode of inhibition: L-DOPA substrate; for K IS (inhibition constant): from intercept of Lineweaver-Burk plots; for mode of inhibition: Lineweaver-Burk plot
# T1 construct: Each well of a 96-well plate contained 40 μg of lysate protein; endogenous in cells; host or cells: B16 melanoma cells (lysate)
# T1 sequence (P11344 19-533): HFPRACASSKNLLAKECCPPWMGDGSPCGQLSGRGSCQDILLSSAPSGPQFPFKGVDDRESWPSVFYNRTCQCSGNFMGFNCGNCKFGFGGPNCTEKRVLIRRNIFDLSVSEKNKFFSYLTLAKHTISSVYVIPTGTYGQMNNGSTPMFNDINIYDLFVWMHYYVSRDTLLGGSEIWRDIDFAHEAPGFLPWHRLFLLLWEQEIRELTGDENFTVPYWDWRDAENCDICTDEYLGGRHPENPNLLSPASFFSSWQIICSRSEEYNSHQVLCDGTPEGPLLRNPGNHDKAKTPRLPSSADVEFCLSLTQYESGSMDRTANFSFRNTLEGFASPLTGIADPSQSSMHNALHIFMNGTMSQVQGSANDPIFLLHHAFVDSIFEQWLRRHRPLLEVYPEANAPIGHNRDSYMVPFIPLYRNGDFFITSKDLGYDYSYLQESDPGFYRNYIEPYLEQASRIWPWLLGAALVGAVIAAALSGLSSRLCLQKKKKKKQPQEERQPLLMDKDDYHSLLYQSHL
# Method: The cells were treated with test compounds as described above for the determination of tyrosinase activity. […] After incubation at 37°C for 30 min, the absorbance was measured at 475 nm. The inhibition constants for compounds and inhibition type were calculated using Lineweaver-Burk plot. The Lineweaver-Burk plot was widely used to determine important terms in enzyme kinetics, such as K m and V max. The plot provided a useful graphical method for analysis of the Michaelis-Menten equation: V = V max [S]/(K m + [S]). It took the reciprocal gave Lineweaver-Burk plot: 1/V = (K m + [S])/V max [S] = ((K m/V max)(1/ [S])) + (1/V max), where V is the reaction velocity (the reaction rate), K m is the Michaelis-Menten constant, V max is the maximum reaction velocity, and [S] is the substrate concentration. The y-intercept of such a graph was equivalent to the inverse of V max; the x-intercept of the graph represents −1/K m. It also gave a quick, visual impression of the different forms of enzyme inhibition. The inhibition constant (K I or K IS) was generated from the slope of the apparent […]/V max or 1/V max versus the concentrations of compounds.
# [4] = system: cellular tyrosinase in B16 melanoma cells; assay: cellular tyrosinase activity in B16 melanoma cells; format: cell-based; conditions: for inhibition at 400 µM: Mus musculus, read-out: inhibition on cellular tyrosinase activity; for effect on cellular tyrosinase activity: 100-400 μM
# [5] = cell viability, MTT colorimetric assay; format: cell-based; conditions: mouse
# Method: as §1
# B16 melanoma cells [6] = assay: cell viability, MTT colorimetric assay; format: cell-based; conditions: for reduction of viable cells: at the higher doses; for cytotoxic activity (reduction of viable cells): dose of 100 μM; for cytotoxic effect: 100, 200, 400 μM, as a whole
# Method: as §1
# [7] = biological target: T1, tyrosinase in B16 melanoma cells; assay: kinetic analysis of tyrosinase activity inhibition, B16 lysate protein, L-DOPA substrate, Lineweaver-Burk plot; format: biochemical; conditions: read-out: AC50, negative inhibition (acceleration) effect on tyrosinase
# Mushroom tyrosinase = assay: cell-free mushroom tyrosinase assay of fractions (L-Tyr substrate); format: biochemical; conditions: L-Tyr as substrate, fractions at 0-12 μg/mL
# Method: Mushroom tyrosinase and L-Tyr were reconstituted in 50 mM Na2HPO4-NaH2PO4 buffer (pH 6.8) at 1000 U/mL and 2.5 mM, respectively. A mixture of 60 μL of 50 mM Na2HPO4-NaH2PO4 buffer (pH 6.8) and 100 μL L-Tyr was designated as solution 1 (control group). […] Solutions 1 and 2 were added to 40 μL tyrosinase for 6 min reaction time at 37°C, individually. Absorbance of the resulting solutions was recorded every min by Beckman TU-1810 spectrophotometer at 475 nm. One unit of tyrosinase activity was arbitrarily defined as a rate of increase of 1 absorbance unit per min in the initial linear region of a plot of absorbance against time. The tyrosinase activity determined by the increasing absorbance at 475 nm accompanying by the oxidation of the substrates was calculated as the following formula [20]: (1) Tyrosinase activity %=A2/A1×100, where A1 is absorbance at 475 nm with solutions 1 and tyrosinase and A2 is absorbance at 475 nm with solutions 2 and tyrosinase.
# [8] = α-MSH-stimulated (100 μM α-MSH)
# [9] = 100 μM, control set as 0% (mean ± SD)
# [10] = 200 μM, control set as 0% (mean ± SD)
# [11] = 400 μM, control set as 0% (mean ± SD)
# [12] = absence of α-MSH stimulation, 72 h
# [13] = α-MSH-stimulated (100 μM α-MSH), 72 h
# [14] = 100 μM, 72 h, percentage of controls (mean ± SD), read-out: Cell viability
# [15] = 200 μM, 72 h, percentage of controls (mean ± SD), read-out: Cell viability
# [16] = 400 μM, 72 h, percentage of controls (mean ± SD), read-out: Cell viability
# [17] = B16 melanoma cells, 100 μM, 72 h, percentage of controls (mean ± SD), read-out: Cell viability
# [18] = B16 melanoma cells, 200 μM, 72 h, percentage of controls (mean ± SD), read-out: Cell viability
# [19] = B16 melanoma cells, 400 μM, 72 h, percentage of controls (mean ± SD), read-out: Cell viability
Structure (SMILES),effect on cellular melanin content (B16 melanoma cells [1]; absence of α-MSH stimulation),effect on cellular melanin content (B16 melanoma cells [1]; [8]),Apoptosis rate (B16 melanoma cells [2]; [9]),Apoptosis rate (B16 melanoma cells [2]; [10]),Apoptosis rate (B16 melanoma cells [2]; [11]),"effect on cellular tyrosinase activity [4, 12]","effect on cellular tyrosinase activity [4, 13]","viability at 72 h, 100 µM [5, 17]","viability at 72 h, 200 µM [5, 18]","viability at 72 h, 400 µM [5, 19]",cytotoxic effect (B16 melanoma cells [6]),other results
"C=C(C)[C@@H]1CC[C@]2(CO)CC[C@]3(C)[C@H](CC[C@@H]4[C@@]5(C)CC[C@H](O)C(C)(C)[C@@H]5CC[C@]43C)[C@@H]12 [Fa-a, betulin]",reduced cellular melanin content,reduced cellular melanin content,9.01 ± 2.21%,12.21 ± 3.03%,15.31 ± 2.90%,significantly reduced cellular tyrosinase activity,able to inhibit the increase in cellular tyrosinase activity,–,–,–,–,"IC50 [3]: 5.13 µM; Ki [3]: 0.4 µM; K IS (inhibition constant) [3]: 0.4 µM; mode of inhibition [3]: noncompetitive inhibitor; mode of inhibition ([3]; listed as Betulin): noncompetitive inhibition; inhibition at 400 µM ([4]; B16, 400 μM, 72 h, absence of α-MSH): 30%; viability at 72 h, 100 µM [5, 14]: 88.3 ± 3.21%; viability at 72 h, 200 µM [5, 15]: 75.1 ± 2.65%; viability at 72 h, 400 µM [5, 16]: 65.3 ± 4.41%; reduction of viable cells (B16 melanoma cells [6]): 34.68%; cytotoxic activity (reduction of viable cells) (B16 melanoma cells [6]): 11.69%"
"CC(C)=CCC[C@@H](C(=O)O)[C@H]1CC[C@@]2(C)C3=C(CC[C@]12C)[C@@]1(C)CC[C@H](O)C(C)(C)[C@@H]1CC3 [Fa-b, trametenolic acid]",reduced cellular melanin content,reduced cellular melanin content,5.11 ± 4.01%,6.51 ± 3.31%,10.09 ± 4.31%,significantly reduced cellular tyrosinase activity,able to inhibit the increase in cellular tyrosinase activity,–,–,–,–,"IC50 [3]: 7.25 µM; Ki [3]: 0.9 µM; K IS (inhibition constant) [3]: 0.5 µM; mode of inhibition [3]: mixed inhibitor; mode of inhibition ([3]; listed as trametenolic acid): mixed inhibition; inhibition at 400 µM ([4]; B16, 72 h): 23%; viability at 72 h, 100 µM [5, 14]: 96.5 ± 3.08%; viability at 72 h, 200 µM [5, 15]: 85.3 ± 4.13%; viability at 72 h, 400 µM [5, 16]: 70 ± 2.05%; reduction of viable cells (B16 melanoma cells [6]): 29.98%; cytotoxic activity (reduction of viable cells) (B16 melanoma cells [6]): 4.55%"
"CC(C)=CC[C@@H](O)[C@@H](C)[C@H]1CC[C@@]2(C)C3=C(CC[C@]12C)[C@@]1(C)CC[C@H](O)C(C)(C)[C@@H]1CC3 [Fb-a, inotodiol]",significantly increased melanin content and cellular tyrosinase activity,significantly increased melanin content and cellular tyrosinase activity,3.91 ± 3.27%,5.10 ± 2.61∗ %,6.07 ± 3.53∗∗ %,–,significantly increased melanin content and cellular tyrosinase activity,99.3 ± 1.53%,99.4 ± 1.41%,98.2 ± 1.35%,a little or no cytotoxic effect,"AC50 [3]: 9.74 µM; increase of cellular tyrosinase activity ([4]; 400 μM, 72 h, absence of α-MSH): 21.24%"
"CC(C)=CCC[C@@H](C)[C@H]1CC[C@@]2(C)C3=C(CC[C@]12C)[C@@]1(C)CC[C@H](O)C(C)(C)[C@@H]1CC3 [Fb-b, lanoserol]",significantly increased melanin content and cellular tyrosinase activity,significantly increased melanin content and cellular tyrosinase activity,0.31 ± 4.37∗∗∗ %,2.62 ± 3.33∗∗∗ %,5.12 ± 2.35∗ %,–,significantly increased melanin content and cellular tyrosinase activity,100 ± 2.56%,96.3 ± 2.61%,94.6 ± 3.03%,a little or no cytotoxic effect,"increase of cellular tyrosinase activity ([4]; 400 μM, 72 h, absence of α-MSH): 18.21%; AC50 [7]: 8.43 µM"
"O=C(O)c1cccnc1 [Fc-a, nicotinie acid]",–,–,10.12% and 10.12 ± 1.14%,25.44% and 25.44 ± 1.53∗∗∗ %,30.51% and 30.51 ± 1.11∗∗∗ %,slight or no inhibition,–,73.5 ± 3.11%,45.3 ± 2.56%,40.5 ± 2.12%,highest cytotoxic effect in dose-dependent manner,–
"CC(C(O)CCC(C)(C)O)[C@H]1CC[C@@]2(C)C3=C(CC[C@]12C)[C@@]1(C)CC[C@H](O)C(C)(C)[C@@H]1CC3 (stereo partly drawn) [Fd-a, 3β,22,25-trihydroxy-lanosta-8-ene]",–,–,–,–,–,slight or no inhibition,–,–,–,–,–,"Apoptosis rate (B16 melanoma cells [2]; mouse, 100 μM): 1.21 ± 2.31%; Apoptosis rate (B16 melanoma cells [2]; mouse, 200 μM): 2.15 ± 3.92%; viability at 72 h, 100 µM [5]: 96.7 ± 1.01%; viability at 72 h, 200 µM [5]: 97.1 ± 1.12%; viability at 72 h, 400 µM [5]: 85 ± 1.51%"
"O=c1cc(CO)occ1O [kojic acid, Kojic acid, reference compound]",reduced tyrosinase activity as well as melanin content,reduced tyrosinase activity as well as melanin content,9.45 ± 1.15%,12.36 ± 1.19%,15.05 ± 2.21%,reduced tyrosinase activity as well as melanin content,reduced tyrosinase activity as well as melanin content,92.4 ± 4.41%,86.1 ± 2.12%,70.9 ± 3.12%,–,"IC50, tyrosinase inhibitory activity (Mushroom tyrosinase): 5.23 µg/mL"
